This note sets out measurements from publication PMC3808999 (Molecular cell, 2013).

Assay [1] deals with human STING C-terminal domain (CTD, residues 139–379) (Homo sapiens, UniProt Q86WV6, H232R). Briefly: Isothermal titration calorimetry. Conditions: direct ITC titration. For orientation: ITC needs no label: the signal is the heat of the interaction.
The target of the next assay is R232H human STING (Homo sapiens, UniProt Q86WV6). Nature of the assay: IFNβ induction. The note with it: L929 cells expressing R232H human STING; IFN-β RNA by q-RT-PCR.
The target in another assay is R232A human STING (Homo sapiens, UniProt Q86WV6, H232A). Nature of the assay: IFNβ induction. The note with it: L929 cells expressing R232A human STING; IFN-β RNA by q-RT-PCR.
The next assay addresses WT human STING (Homo sapiens, UniProt Q86WV6, H232R). Briefly: IFNβ induction. Conditions: L929 cells expressing WT human STING; IFN-β RNA by q-RT-PCR.

human STING C-terminal domain (CTD, residues 139–379), sequence (Q86WV6 139-379 H232R): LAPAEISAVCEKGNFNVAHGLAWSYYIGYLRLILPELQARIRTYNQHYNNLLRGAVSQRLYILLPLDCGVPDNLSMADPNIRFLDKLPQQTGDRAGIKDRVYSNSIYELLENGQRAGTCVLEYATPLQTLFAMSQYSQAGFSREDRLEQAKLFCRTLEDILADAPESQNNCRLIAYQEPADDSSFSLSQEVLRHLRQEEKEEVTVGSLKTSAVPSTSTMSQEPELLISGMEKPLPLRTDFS
R232A human STING, sequence (Q86WV6 whole entry H232A): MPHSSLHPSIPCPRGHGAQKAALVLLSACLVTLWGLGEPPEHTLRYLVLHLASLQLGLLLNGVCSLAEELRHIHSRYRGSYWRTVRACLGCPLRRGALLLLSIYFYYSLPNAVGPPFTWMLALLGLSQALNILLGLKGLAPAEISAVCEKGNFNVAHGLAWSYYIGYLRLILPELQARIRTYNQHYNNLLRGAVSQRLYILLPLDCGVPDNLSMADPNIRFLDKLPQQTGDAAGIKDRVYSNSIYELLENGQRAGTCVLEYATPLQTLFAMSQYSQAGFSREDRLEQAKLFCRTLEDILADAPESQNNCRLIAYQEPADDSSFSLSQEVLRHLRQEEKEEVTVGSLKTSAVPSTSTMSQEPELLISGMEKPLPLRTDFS
R232H human STING, sequence (Q86WV6 whole entry, stated change not applied): as the sequence (Q86WV6 whole entry H232A) above, with A232H counted along it
WT human STING, sequence (Q86WV6 whole entry H232R): as the sequence (Q86WV6 whole entry H232A) above, with A232R counted along it

Take `Nc1nc2c(ncn2[C@@H]2O[C@@H]3COP(=O)(O)O[C@H]4[C@@H](O)[C@H](n5cnc6c(=O)[nH]c(N)nc65)O[C@@H]4COP(=O)(O)O[C@H]3[C@H]2O)c(=O)[nH]1` [c-di-GMP, cyclic di-GMP]: the “heat character of binding to STING” value in assay [1] is recorded as “exothermic”.

As to poly[I:C], the IFNβ induction entry at R232H human STING, on R232A human STING and at WT human STING was “stimulated IFNβ expression” each time.
